#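 Following 48 hours of exposure in 96-well plates, responses at five concentrations were used to interpolate endpoints linearly. TGI: concentration producing complete growth inhibition.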
# Key:
# Experiment in all cases: NCI-60 cell line screen, 48 h
# [1] = tested on: 786-0 renal
# [2] = tested on: A498 renal
# [3] = tested on: A549 NSCLC
# [4] = tested on: ACHN renal
# [5] = tested on: BT-549 breast
# [6] = tested on: CAKI-1 renal
# [7] = tested on: CCRF-CEM leukemia
# [8] = tested on: COLO 205 colon
# [9] = tested on: DLD-1 colon
# [10] = tested on: DMS 114 small cell lung
# [11] = tested on: DMS 273 small cell lung
# [12] = tested on: DU-145 prostate
# [13] = tested on: EKVX NSCLC
# [14] = tested on: HCC-2998 colon
# [15] = tested on: HCT-116 colon
# [16] = tested on: HCT-15 colon
# [17] = tested on: HL-60(TB) leukemia
# [18] = tested on: HOP-18 NSCLC
# [19] = tested on: HOP-62 NSCLC
# [20] = tested on: HOP-92 NSCLC
# [21] = tested on: HS 578T breast
# [22] = tested on: HT29 colon
# [23] = tested on: IGROV1 ovarian
# [24] = tested on: K-562 leukemia
# [25] = tested on: KM12 colon
# [26] = tested on: KM20L2 colon
# [27] = tested on: LOX IMVI melanoma
# [28] = tested on: LXFL 529 NSCLC
# [29] = tested on: M14 melanoma
# [30] = tested on: M19-MEL melanoma
# [31] = tested on: MALME-3M melanoma
# [32] = tested on: MCF7 breast
# [33] = tested on: MDA-MB-231 breast
# [34] = tested on: MDA-MB-435
# [35] = tested on: MDA-N
# [36] = tested on: MOLT-4 leukemia
# [37] = tested on: NCI-H226 lung
# [38] = tested on: NCI-H23 lung
# [39] = tested on: NCI-H460 lung
# [40] = tested on: NCI-H522 lung
# [41] = tested on: NCI/ADR-RES ovarian
# [42] = tested on: OVCAR-3 ovarian
# [43] = tested on: OVCAR-4 ovarian
# [44] = tested on: OVCAR-5 ovarian
# [45] = tested on: OVCAR-8 ovarian
# [46] = tested on: RPMI-8226 leukemia
# [47] = tested on: RXF 393 renal
# [48] = tested on: SF-268 CNS
# [49] = tested on: SF-295 CNS
# [50] = tested on: SF-539 CNS
# [51] = tested on: SK-MEL-2 melanoma
# [52] = tested on: SK-MEL-28 melanoma
# [53] = tested on: SK-MEL-5 melanoma
# [54] = tested on: SK-OV-3 ovarian
# [55] = tested on: SN12C renal
# [56] = tested on: SNB-19 CNS
# [57] = tested on: SNB-75 CNS
# [58] = tested on: SNB-78 CNS
# [59] = tested on: SR leukemia
# [60] = tested on: SW-620 colon
# [61] = tested on: T-47D breast
# [62] = tested on: TK-10 renal
# [63] = tested on: U251 CNS
# [64] = tested on: UACC-257 melanoma
# [65] = tested on: UACC-62 melanoma
# [66] = tested on: UO-31 renal
# [67] = tested on: XF 498 CNS
# [68] = tested on: RXF-631 renal
smiles,measurement,setting,value
CC1=C(N2CC2)C(=O)c2nc3n(c2C1=O)CCC3OC(=O)CCl (stereo not given),TGI,[1],0.191 µM
same,TGI,[2],0.13 µM
same,TGI,[3],0.169 µM
same,TGI,[4],0.216 µM
same,TGI,[5],0.0444 µM
same,TGI,[6],0.174 µM
same,TGI,[7],3.65 µM
same,TGI,[8],0.444 µM
same,TGI,[9],1.58 µM
same,TGI,[10],0.512 µM
same,TGI,[11],0.128 µM
same,TGI,[12],0.19 µM
same,TGI,[13],0.551 µM
same,TGI,[14],0.136 µM
same,TGI,[15],0.383 µM
same,TGI,[16],0.0825 µM
same,TGI,[17],3.18 µM
same,TGI,[18],0.178 µM
same,TGI,[19],0.145 µM
same,TGI,[20],8.04 µM
same,TGI,[21],0.0784 µM
same,TGI,[22],0.337 µM
same,TGI,[23],0.928 µM
same,TGI,[24],1.61 µM
same,TGI,[25],0.0977 µM
same,TGI,[26],0.547 µM
same,TGI,[27],0.117 µM
same,TGI,[28],0.227 µM
same,TGI,[29],0.0814 µM
same,TGI,[30],0.266 µM
same,TGI,[31],0.103 µM
same,TGI,[32],0.0468 µM
same,TGI,[33],> 100 µM
same,TGI,[34],0.112 µM
same,TGI,[35],0.056 µM
same,TGI,[36],5.89 µM
same,TGI,[37],0.17 µM
same,TGI,[38],0.0825 µM
same,TGI,[39],0.123 µM
same,TGI,[40],0.0617 µM
same,TGI,[41],0.0862 µM
same,TGI,[42],0.52 µM
same,TGI,[43],0.218 µM
same,TGI,[44],0.263 µM
same,TGI,[45],0.165 µM
same,TGI,[46],1.7 µM
same,TGI,[47],0.069 µM
same,TGI,[48],0.202 µM
same,TGI,[49],0.204 µM
same,TGI,[50],0.152 µM
same,TGI,[51],0.271 µM
same,TGI,[52],0.141 µM
same,TGI,[53],0.0893 µM
same,TGI,[54],0.29 µM
same,TGI,[55],0.267 µM
same,TGI,[56],0.684 µM
same,TGI,[57],0.05 µM
same,TGI,[58],0.6 µM
same,TGI,[59],13.6 µM
same,TGI,[60],0.191 µM
same,TGI,[61],3.88 µM
same,TGI,[62],0.639 µM
same,TGI,[63],0.237 µM
same,TGI,[64],0.235 µM
same,TGI,[65],0.0696 µM
same,TGI,[66],0.0944 µM
same,TGI,[67],0.0954 µM
CN(C)CCCNc1ccc2ncn3c4ccccc4c(=O)c1c23,TGI,[1],33.2 µM
same,TGI,[4],52.5 µM
same,TGI,[7],23.4 µM
same,TGI,[8],15 µM
same,TGI,[9],39.6 µM
same,TGI,[10],> 100 µM
same,TGI,[15],15.1 µM
same,TGI,[16],85.6 µM
same,TGI,[17],21.2 µM
same,TGI,[18],68.4 µM
same,TGI,[19],> 100 µM
same,TGI,[20],59.5 µM
same,TGI,[22],19.6 µM
same,TGI,[23],33 µM
same,TGI,[24],24.1 µM
same,TGI,[25],20.3 µM
same,TGI,[26],30.4 µM
same,TGI,[27],13.7 µM
same,TGI,[28],> 100 µM
same,TGI,[29],41.6 µM
same,TGI,[30],30.6 µM
same,TGI,[31],49.2 µM
same,TGI,[36],13 µM
same,TGI,[37],25.9 µM
same,TGI,[38],29 µM
same,TGI,[39],14.5 µM
same,TGI,[40],> 100 µM
same,TGI,[42],56.2 µM
same,TGI,[43],97.1 µM
same,TGI,[44],38.5 µM
same,TGI,[45],20 µM
same,TGI,[46],26.9 µM
same,TGI,[68],26.3 µM
same,TGI,[48],40.4 µM
same,TGI,[49],39 µM
same,TGI,[50],90.8 µM
same,TGI,[51],26.8 µM
same,TGI,[52],> 100 µM
same,TGI,[54],> 100 µM
same,TGI,[55],> 100 µM
same,TGI,[56],> 100 µM
same,TGI,[57],92.2 µM
same,TGI,[58],78.7 µM
same,TGI,[59],17.7 µM
same,TGI,[60],26.5 µM
same,TGI,[62],69.7 µM
same,TGI,[63],> 100 µM
same,TGI,[64],61.3 µM
same,TGI,[65],34.7 µM
same,TGI,[66],52.3 µM
N#CC(c1ccccc1)c1nc2ccc(=N)cc-2n(O)c1C(C#N)c1ccccc1 (stereo not given),TGI,[1],> 100 µM
same,TGI,[2],> 100 µM
same,TGI,[3],> 100 µM
same,TGI,[4],> 100 µM
same,TGI,[6],> 100 µM
same,TGI,[7],> 100 µM
same,TGI,[8],> 100 µM
same,TGI,[9],> 100 µM
same,TGI,[11],> 100 µM
same,TGI,[13],> 100 µM
same,TGI,[15],> 100 µM
same,TGI,[16],> 100 µM
same,TGI,[17],> 100 µM
same,TGI,[18],> 100 µM
same,TGI,[19],> 100 µM
same,TGI,[22],> 100 µM
same,TGI,[23],> 100 µM
same,TGI,[24],> 100 µM
same,TGI,[25],> 100 µM
same,TGI,[26],> 100 µM
same,TGI,[27],> 100 µM
same,TGI,[28],> 100 µM
same,TGI,[29],> 100 µM
same,TGI,[30],> 100 µM
same,TGI,[31],> 100 µM
same,TGI,[36],> 100 µM
same,TGI,[37],> 100 µM
same,TGI,[38],> 100 µM
same,TGI,[39],> 100 µM
same,TGI,[40],> 100 µM
same,TGI,[42],> 100 µM
same,TGI,[43],> 100 µM
same,TGI,[44],> 100 µM
same,TGI,[45],> 100 µM
same,TGI,[47],> 100 µM
same,TGI,[68],> 100 µM
same,TGI,[48],> 100 µM
same,TGI,[49],> 100 µM
same,TGI,[50],> 100 µM
same,TGI,[51],> 100 µM
same,TGI,[52],> 100 µM
same,TGI,[54],> 100 µM
same,TGI,[55],> 100 µM
same,TGI,[56],> 100 µM
same,TGI,[58],> 100 µM
same,TGI,[59],> 100 µM
same,TGI,[60],> 100 µM
same,TGI,[62],> 100 µM
same,TGI,[63],> 100 µM
same,TGI,[64],> 100 µM
same,TGI,[65],> 100 µM
same,TGI,[66],> 100 µM
same,TGI,[67],> 100 µM
